Measured values from PubChem BioAssay (NCI).
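Five compound concentrations were applied to cells in 96-well plates for 48 hours; endpoints were derived by simple linear interpolation of the resulting dose-response curve. TGI: total growth inhibition.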

How the values were obtained:
Assay in all cases: NCI anticancer screen, dose series, 48 h
[1] = system: ACHN renal
[2] = system: SR leukemia
[3] = system: HCT-15 colon
[4] = system: HOP-62 NSCLC
[5] = system: CCRF-CEM leukemia
[6] = system: CAKI-1 renal
[7] = system: K-562 leukemia
[8] = system: OVCAR-5 ovarian
[9] = system: UO-31 renal
[10] = system: HCC-2998 colon

## CCCC(C(=O)OC)C1N=C(NC#N)N(Cc2ccccc2)C1=O (centres undefined)
[1]
  TGI: > 100 µM
[2]
  TGI: > 100 µM
[3]
  TGI: > 100 µM
[4]
  TGI: > 100 µM
[5]
  TGI: > 100 µM
[6]
  TGI: > 100 µM
[7]
  TGI: > 100 µM
[8]
  TGI: > 100 µM
[9]
  TGI: > 100 µM
[10]
  TGI: > 100 µM

## COC(=O)[C@H](Cc1ccccc1)NC(=O)N(CCNC(=O)OC(C)(C)C)c1ccccc1
[1]
  TGI: > 100 µM
[2]
  TGI: > 100 µM
[3]
  TGI: > 100 µM
[4]
  TGI: > 100 µM
[5]
  TGI: > 100 µM
[6]
  TGI: > 100 µM
[7]
  TGI: > 100 µM
[8]
  TGI: > 100 µM
[9]
  TGI: > 100 µM
[10]
  TGI: > 100 µM

## O=C1N[C@H](C(=O)O)[C@@H](c2ccc(OCc3ccccc3)cc2)O1
[1]
  TGI: > 100 µM
[3]
  TGI: > 100 µM
[4]
  TGI: 33.2 µM
[5]
  TGI: > 100 µM
[6]
  TGI: > 100 µM
[7]
  TGI: > 100 µM
[8]
  TGI: > 100 µM
[9]
  TGI: > 100 µM
[10]
  TGI: > 100 µM

## COc1ccc(C=O)cc1OS(=O)(=O)C(F)(F)C(F)(F)C(F)(F)C(F)(F)F
[1]
  TGI: > 100 µM
[2]
  TGI: > 24.4 µM
[3]
  TGI: > 100 µM
[4]
  TGI: > 79.8 µM
[5]
  TGI: 63.1 µM
[6]
  TGI: > 100 µM
[8]
  TGI: > 100 µM
[9]
  TGI: > 60.9 µM

## OC(Cc1cc(CC(O)(C(F)(F)F)C(F)(F)F)nc(CC(O)(C(F)(F)F)C(F)(F)F)c1)(C(F)(F)F)C(F)(F)F
[1]
  TGI: > 10 µM
[3]
  TGI: 3.95 µM
[4]
  TGI: 3.63 µM
[5]
  TGI: > 10 µM
[6]
  TGI: 2.31 µM
[7]
  TGI: > 10 µM
[8]
  TGI: > 10 µM
[10]
  TGI: > 10 µM

## CC(C)C(CCOS(=O)(=O)O)CCC(C)[C@H]1[C@@H](O)C(O)C2[C@]3(O)C[C@@H](O)C4(O)C[C@@H](O)CC[C@]4(C)C3CC[C@@]21C (some centres undefined)
[1]
  TGI: > 100 µM
[2]
  TGI: > 100 µM
[3]
  TGI: > 100 µM
[4]
  TGI: > 100 µM
[5]
  TGI: > 100 µM
[6]
  TGI: > 100 µM
[7]
  TGI: > 100 µM
[9]
  TGI: > 100 µM
[10]
  TGI: > 100 µM

## CC1CCc2c(sc3ncnc(N/N=C/c4ccc(Cl)cc4)c23)C1 (centres undefined)
[1]
  TGI: 94.9 µM
[2]
  TGI: 55 µM
[3]
  TGI: > 100 µM
[4]
  TGI: > 100 µM
[6]
  TGI: 89.5 µM
[7]
  TGI: 48.1 µM
[8]
  TGI: > 100 µM
[9]
  TGI: 29.7 µM
[10]
  TGI: > 100 µM

## OCC1OC(n2cnc3c(Cl)nc(Nc4ccc(Cl)c(Cl)c4)nc32)CC1O (centres undefined)
[1]
  TGI: 19.9 µM
[3]
  TGI: 21.7 µM
[4]
  TGI: 23 µM
[5]
  TGI: 18.1 µM
[6]
  TGI: 33.7 µM
[7]
  TGI: 49.4 µM
[8]
  TGI: > 50 µM
[9]
  TGI: 31.4 µM
[10]
  TGI: 17.1 µM

## CC1(C)[C@H]2Cc3cc4nc5ccccn5c4cc3[C@@H]1C2
[1]
  TGI: 34.2 µM
[3]
  TGI: 35 µM
[4]
  TGI: 39.7 µM
[5]
  TGI: 75.1 µM
[6]
  TGI: 30 µM
[7]
  TGI: > 100 µM
[8]
  TGI: 30.8 µM
[9]
  TGI: 26.9 µM
[10]
  TGI: 37 µM

## Cc1ccc(-c2cc(=O)c(=O)[nH][nH]2)cc1
[1]
  TGI: > 100 µM
[2]
  TGI: > 100 µM
[3]
  TGI: > 100 µM
[4]
  TGI: > 100 µM
[5]
  TGI: > 100 µM
[6]
  TGI: > 100 µM
[7]
  TGI: > 100 µM
[8]
  TGI: > 100 µM
[9]
  TGI: > 100 µM
[10]
  TGI: > 100 µM

## Cn1c(=S)[nH]c(N)c(Cc2ccccc2)c1=O
[1]
  TGI: > 100 µM
[2]
  TGI: > 100 µM
[3]
  TGI: > 100 µM
[4]
  TGI: > 100 µM
[5]
  TGI: > 100 µM
[6]
  TGI: > 100 µM
[7]
  TGI: > 100 µM
[8]
  TGI: > 100 µM
[10]
  TGI: > 100 µM

## CC(N)C(C)c1ccccc1 (centres undefined)
[1]
  TGI: > 100 µM
[2]
  TGI: > 100 µM
[3]
  TGI: > 100 µM
[4]
  TGI: > 100 µM
[5]
  TGI: > 100 µM
[6]
  TGI: > 100 µM
[7]
  TGI: > 100 µM
[8]
  TGI: > 100 µM
[9]
  TGI: > 100 µM
[10]
  TGI: > 100 µM

## CC(C)c1c(O[Si](C(C)C)(C(C)C)C(C)C)cc2c(c1O)CC[C@H]1C(C)(C)CCC[C@]21C
[1]
  TGI: > 100 µM
[3]
  TGI: > 100 µM
[4]
  TGI: > 100 µM
[5]
  TGI: > 100 µM
[6]
  TGI: > 100 µM
[7]
  TGI: > 100 µM
[8]
  TGI: > 100 µM
[9]
  TGI: > 100 µM

## c1ccc(/C(=N/Nc2ccccn2)c2cccnn2)cc1
[1]
  TGI: 24.5 µM
[2]
  TGI: > 20.8 µM
[3]
  TGI: > 100 µM
[4]
  TGI: > 63.8 µM
[6]
  TGI: > 41.6 µM
[7]
  TGI: > 100 µM
[8]
  TGI: > 100 µM
[9]
  TGI: 6.02 µM
[10]
  TGI: > 100 µM

## Cc1cc(=O)oc2c(C)c3oc(CBr)cc3cc12
[1]
  TGI: 29.8 µM
[2]
  TGI: > 100 µM
[3]
  TGI: 44.3 µM
[4]
  TGI: 33.6 µM
[5]
  TGI: 54.2 µM
[6]
  TGI: 31.8 µM
[7]
  TGI: 46.7 µM
[8]
  TGI: 36.8 µM
[9]
  TGI: 30.3 µM
[10]
  TGI: 31.9 µM

## Cn1c(=O)c2c(=O)cc(N)[nH]c2n(C)c1=O
[1]
  TGI: > 100 µM
[4]
  TGI: > 100 µM
[5]
  TGI: > 100 µM
[6]
  TGI: 76.8 µM
[7]
  TGI: > 100 µM
[8]
  TGI: > 100 µM
[9]
  TGI: > 100 µM
[10]
  TGI: > 100 µM

## COc1ccc(Nc2cc(=O)[nH]c(=O)[nH]2)cc1
[1]
  TGI: > 100 µM
[2]
  TGI: > 100 µM
[3]
  TGI: > 100 µM
[4]
  TGI: > 100 µM
[5]
  TGI: > 100 µM
[7]
  TGI: > 100 µM
[8]
  TGI: > 100 µM
[9]
  TGI: > 100 µM
[10]
  TGI: > 100 µM

## CCOC(=O)c1cc([N+](=O)[O-])c(Sc2ncnc3nc[nH]c23)c([N+](=O)[O-])c1
[1]
  TGI: 19.9 µM
[2]
  TGI: 83.3 µM
[3]
  TGI: 6.57 µM
[4]
  TGI: 24.8 µM
[5]
  TGI: 4.39 µM
[6]
  TGI: 12.7 µM
[8]
  TGI: 5.15 µM
[9]
  TGI: 7.08 µM
[10]
  TGI: 36.7 µM

## O=C(Nc1ccc(F)cc1)c1cc2c(cc1Cl)Sc1nccn1S2(=O)=O
[1]
  TGI: > 100 µM
[3]
  TGI: > 100 µM
[4]
  TGI: 92.9 µM
[5]
  TGI: > 100 µM
[6]
  TGI: > 100 µM
[7]
  TGI: > 100 µM
[8]
  TGI: > 100 µM
[10]
  TGI: > 100 µM

## O=c1c2cc([N+](=O)[O-])ccc2n2n1CCCCC2
[1]
  TGI: > 100 µM
[2]
  TGI: > 100 µM
[3]
  TGI: > 100 µM
[4]
  TGI: > 100 µM
[5]
  TGI: > 100 µM
[6]
  TGI: > 100 µM
[7]
  TGI: > 100 µM
[8]
  TGI: > 100 µM
[9]
  TGI: > 100 µM
[10]
  TGI: > 100 µM

## C=C1CC[C@@H]2[C@](C)(COC(=O)CCC(=O)O)CCC[C@@]2(C)[C@@H]1CCC1=CC(=O)OC1
[1]
  TGI: > 100 µM
[3]
  TGI: > 100 µM
[4]
  TGI: > 100 µM
[5]
  TGI: > 100 µM
[6]
  TGI: > 100 µM
[7]
  TGI: > 100 µM
[8]
  TGI: > 100 µM
[9]
  TGI: > 100 µM
[10]
  TGI: > 100 µM

## C#CCn1c(=O)ccn(/C(=C/C(=O)OCC)C(=O)OCC)c1=O
[1]
  TGI: 3.21 µM
[2]
  TGI: > 100 µM
[3]
  TGI: 7.8 µM
[4]
  TGI: 31.8 µM
[5]
  TGI: 6.35 µM
[6]
  TGI: 3.05 µM
[7]
  TGI: > 100 µM
[8]
  TGI: 21.9 µM
[9]
  TGI: 25.3 µM
